Patent US7462600B2, “Macrolides” (Pfizer Inc, priority 2004, dated 2008)
Converted amounts (≈) assume the structure as drawn. Where two headings read alike, the source gives them in different places.

Tests used:
Assay type in all cases: cell-based
[1] = test system: Streptococcus pneumoniae 1016; test: MIC, microtiter broth dilution (NCCLS M100-S14), S. pneumoniae 1016 (susceptible)
How it was run: (§1)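 Steps: dissolve compound in DMSO to 40 mg/ml stock; dilute in broth across microtiter trays; inoculate strains; record MIC per NCCLS M100-S14.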

[2] = test system: Streptococcus pyogenes 1079; test: MIC, microtiter broth dilution (NCCLS M100-S14), S. pyogenes 1079 (ermB)
How it was run: as §1

[3] = test system: Streptococcus pneumoniae 1175; details: microtiter broth dilution
How it was run: as §1

[4] = test system: Streptococcus pneumoniae 1095; details: microtiter broth dilution
How it was run: as §1

[5] = test system: Haemophilus influenzae 1218; test: MIC, microtiter broth dilution (NCCLS M100-S14), H. influenzae 1218 (susceptible)
How it was run: as §1

[6] = S. pneumoniae 1016 (susceptible)
[7] = H. influenzae 1218 (susceptible)

Compound	MIC S. pneumo. 1016 ([1]; Streptococcus pneumoniae 1016) [µg/mL]	MIC S. pyogenes 1079 ([2]; Streptococcus pyogenes 1079) [µg/mL]	MIC S. pneumo. 1175 ([3]; Streptococcus pneumoniae 1175) [µg/mL]	MIC S. pneumo. 1095 ([4]; Streptococcus pneumoniae 1095) [µg/mL]	MIC H. influenzae 1218 ([5]; Haemophilus influenzae 1218) [µg/mL]	MIC S. pneumo. 1016 [1, 6] [µg/mL]	MIC S. pyogenes 1079 ([2]; S. pyogenes 1079 (ermB)) [µg/mL]	MIC S. pneumo. 1175 ([3]; S. pneumoniae 1175 (mefA)) [µg/mL]	MIC S. pneumo. 1095 ([4]; S. pneumoniae 1095 (ermB)) [µg/mL]	MIC H. influenzae 1218 [5, 7] [µg/mL]
CCC1OC(=O)C(C)C(=O)C(C)C(OC2OC(C)CC(N(C)C)C2O)C(C)(OC)CC(C)C(=O)C(C)C2N(C3CN(Cc4ccc5c(c4)OCO5)C3)C(=O)OC12C (stereo not shown) [Example 1.104, 3-descladinosyl-11,12-dideoxy-6-O-methyl-3-oxo-12,11-(oxycarbonyl-(1-(benzo[d][1,3]dioxole-5-methyl)-azetidin-3-yl)-imino)erythromycin A]	<0.063	>64	0.125 (≈ 0.156 µM)	<0.063	0.25 (≈ 0.312 µM)	–	–	–	–	–
CC[C@H]1OC(=O)[C@H](C)C(=O)[C@H](C)[C@@H](O[C@@H]2O[C@H](C)C[C@H](N(C)C)[C@H]2O)[C@](C)(OC)C[C@@H](C)C(=O)[C@H](C)[C@H]2N(CC3(O)CN(C(=O)c4ccc5cccnc5c4)C3)C(=O)O[C@]12C [7.21]	–	–	–	–	–	<0.06	>64.00	1 (≈ 1.17 µM)	0.5 (≈ 0.586 µM)	2 (≈ 2.34 µM)
CCC1OC(=O)C(C)C(=O)C(C)C(OC2OC(C)CC(N(C)C)C2O)C(C)(OC)CC(C)C(=O)C(C)C2N(C3CN(S(=O)(=O)c4cccc5cnncc45)C3)C(=O)OC12C (stereo not shown) [Example 3.92, 3-descladinosyl-11,12-dideoxy-6-O-methyl-3-oxo-12,11-(oxycarbonyl-(1-(phthalazine-5-sulfonyl)-azetidin-3-yl)-imino)-erythromycin A]	<0.06	4 (≈ 4.65 µM)	<0.06	<0.06	1 (≈ 1.16 µM)	–	–	–	–	–
CCC1OC(=O)C(C)C(=O)C(C)C(OC2OC(C)CC(N(C)C)C2O)C(C)(OC)CC(C)C(=O)C(C)C2N(CC3CCCN3Cc3c[nH]nn3)C(=O)OC12C (stereo not shown) [10.02]	–	–	–	–	–	<0.06	>64.00	2 (≈ 2.57 µM)	0.25 (≈ 0.322 µM)	1 (≈ 1.29 µM)
CCC1OC(=O)C(C)C(=O)C(C)C(OC2OC(C)CC(N(C)C)C2O)C(C)(OC)CC(C)C(=O)C(C)C2N(CC3CCN(Cc4c[nH]c5cnccc45)C3)C(=O)OC12C (stereo not shown) [13.03]	–	–	–	–	–	<0.06	>64.00	4 (≈ 4.84 µM)	1 (≈ 1.21 µM)	2 (≈ 2.42 µM)
3-descladinosyl-11,12-dideoxy-6-O-methyl-3-oxo-12,11-(oxycarbonyl-(1-(quinoline-6-sulfonyl)-azetidin-3-yl)-imino)-erythromycin A [Example 3.89]	<0.06	8	<0.06	<0.06	1	–	–	–	–	–
CCC1OC(=O)C(C)C(=O)C(C)C(OC2OC(C)CC(N(C)C)C2O)C(C)(OC)CC(C)C(=O)C(C)C2N(C3CN(S(=O)(=O)c4cccc5nccnc45)C3)C(=O)OC12C (stereo not shown) [Example 3.93, 3-descladinosyl-11,12-dideoxy-4-O-methyl-3-oxo-12,11-(oxycarbonyl-(1-(quinoxaline-5-sulfonyl)-azetidin-3-yl)-imino)-erythromycin A]	<0.06	1 (≈ 1.16 µM)	<0.06	<0.06	0.25 (≈ 0.291 µM)	–	–	–	–	–
CCC1OC(=O)C(C)C(=O)C(C)C(OC2OC(C)CC(N(C)C)C2O)C(C)(OC)CC(C)C(=O)C(C)C2N(C3CN(S(=O)(=O)c4cccnc4OC)C3)C(=O)OC12C (stereo not shown) [Example 3.37, 2-methoxypyridine-3-sulfonyl]	<0.06	16 (≈ 19.1 µM)	<0.06	4 (≈ 4.77 µM)	0.5 (≈ 0.596 µM)	–	–	–	–	–
CCC1OC(=O)C(C)C(=O)C(C)C(OC2OC(C)CC(N(C)C)C2O)C(C)(OC)CC(C)C(=O)C(C)C2N(CC3CN(Cc4ccc5cnccn45)C3)C(=O)OC12C (stereo not shown) [4.24]	<0.06	64 (≈ 78.8 µM)	<0.06	0.5 (≈ 0.616 µM)	0.5 (≈ 0.616 µM)	–	–	–	–	–
CCC1OC(=O)C(C)C(=O)C(C)C(OC2OC(C)CC(N(C)C)C2O)C(C)(OC)CC(C)C(=O)C(C)C2N(C3CN(S(=O)(=O)c4ccc5c(c4)CCC5)C3)C(=O)OC12C (stereo not shown) [Example 3.83]	<0.06	32 (≈ 37.7 µM)	<0.06	<0.06	1 (≈ 1.18 µM)	–	–	–	–	–
CCC1OC(=O)C(C)C(=O)C(C)C(OC2OC(C)CC(N(C)C)C2O)C(C)(OC)CC(C)C(=O)C(C)C2N(CC3CN(C(=O)c4cnn5ccccc45)C3)C(=O)OC12C (stereo not shown) [4.35]	<0.06	>64.00	0.12 (≈ 0.145 µM)	1 (≈ 1.21 µM)	1 (≈ 1.21 µM)	–	–	–	–	–
